According to ChEMBL document CHEMBL5260826, “Enzyme inhibitory activities an insight into the structure-Activity relationship of biscoumarin derivatives” (Eur J Med Chem, 2017):
Values after ≈ are worked out from the molar mass of the structure shown.

target: T1, Hepatocyte growth factor receptor (Homo sapiens, UniProt P08581); test: Inhibition of c-Met (unknown origin) using poly (Glu,Tyr) at 4:1 ratio as substrate incubated for 60 mins by ELISA
T1 sequence (P08581 whole entry): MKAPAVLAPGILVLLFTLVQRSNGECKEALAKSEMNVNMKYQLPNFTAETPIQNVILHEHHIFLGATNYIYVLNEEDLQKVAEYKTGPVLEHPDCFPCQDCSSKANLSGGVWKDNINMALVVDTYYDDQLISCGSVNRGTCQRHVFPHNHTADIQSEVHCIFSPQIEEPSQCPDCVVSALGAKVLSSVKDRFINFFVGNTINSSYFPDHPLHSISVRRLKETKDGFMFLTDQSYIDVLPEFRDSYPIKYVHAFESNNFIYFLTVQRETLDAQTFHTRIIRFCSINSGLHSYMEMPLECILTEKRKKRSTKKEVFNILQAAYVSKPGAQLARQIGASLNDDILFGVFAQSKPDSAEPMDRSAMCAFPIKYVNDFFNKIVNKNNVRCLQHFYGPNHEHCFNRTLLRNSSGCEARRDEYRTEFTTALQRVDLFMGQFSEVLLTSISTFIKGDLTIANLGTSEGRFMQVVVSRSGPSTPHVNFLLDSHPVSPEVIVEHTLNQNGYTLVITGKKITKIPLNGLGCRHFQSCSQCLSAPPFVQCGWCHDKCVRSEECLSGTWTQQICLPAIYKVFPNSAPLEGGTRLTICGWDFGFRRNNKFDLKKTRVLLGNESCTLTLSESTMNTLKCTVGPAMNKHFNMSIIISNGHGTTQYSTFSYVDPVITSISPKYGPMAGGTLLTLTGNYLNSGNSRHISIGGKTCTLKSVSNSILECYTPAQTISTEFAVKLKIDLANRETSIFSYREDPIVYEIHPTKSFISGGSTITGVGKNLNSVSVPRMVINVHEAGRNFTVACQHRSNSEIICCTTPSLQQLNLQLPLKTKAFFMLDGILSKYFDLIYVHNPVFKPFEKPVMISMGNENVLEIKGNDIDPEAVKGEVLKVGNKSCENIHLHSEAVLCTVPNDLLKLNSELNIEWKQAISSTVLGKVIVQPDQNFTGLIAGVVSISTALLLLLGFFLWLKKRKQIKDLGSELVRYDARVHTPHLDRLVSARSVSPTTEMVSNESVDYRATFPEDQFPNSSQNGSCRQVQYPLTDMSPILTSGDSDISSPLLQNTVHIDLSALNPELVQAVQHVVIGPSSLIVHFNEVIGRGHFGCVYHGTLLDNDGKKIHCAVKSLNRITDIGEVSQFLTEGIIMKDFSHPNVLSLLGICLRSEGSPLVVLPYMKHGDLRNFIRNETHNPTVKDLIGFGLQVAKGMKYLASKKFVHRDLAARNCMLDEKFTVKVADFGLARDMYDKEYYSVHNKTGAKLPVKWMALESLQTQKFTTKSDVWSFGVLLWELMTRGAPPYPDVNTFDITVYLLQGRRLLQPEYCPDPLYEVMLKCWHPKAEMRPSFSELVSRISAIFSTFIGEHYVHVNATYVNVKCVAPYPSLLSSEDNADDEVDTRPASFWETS

Question: With `CC(C)CC(NC(=O)c1cc2ccc(O)c(O)c2oc1=O)C(=O)Nc1cc2ccc(O)c(O)c2oc1=O` (configuration not stated) as the compound, how does the IC50 read?
Answer: 0.107 µM

Question: Which IC50 does the source give for `CCCCCCC(NC(=O)c1cc2ccc(O)c(O)c2oc1=O)C(=O)Nc1cc2ccc(O)c(O)c2oc1=O` (configuration not stated) here?
Answer: 0.03 µM

target: DNA polymerase beta (Homo sapiens, UniProt P06746); test: Inhibition of DNA polymerase beta (unknown origin)

Question: With `O=c1oc2ccccc2c(O)c1C(c1ccc(NC(=S)Nc2ccc([N+](=O)[O-])cc2)cc1)c1c(O)c2ccccc2oc1=O` as the compound, how does the IC50 read?
Answer: 24.7 µM

Question: Which IC50 does the source give for `O=c1ccc2ccc(Cc3cc4ccc(O)cc4oc3=O)cc2o1` here?
Answer: 22.5 µM

Question: Which IC50 does the source give for `O=c1ccc2ccc(Cc3c(O)c4cc(O)c(O)cc4oc3=O)cc2o1` here?
Answer: 94.8 µM

Question: With `COc1cc2c(O)c(Cc3ccc4ccc(=O)oc4c3)c(=O)oc2cc1O` as the compound, how does the IC50 read?
Answer: 122 µM

target: T1, Hepatocyte growth factor receptor; test: Inhibition of c-Met (unknown origin)

Question: Which IC50 does the source give for `O=c1oc2c(O)c(O)ccc2c(O)c1Cc1c(O)c2ccc(O)c(O)c2oc1=O` here?
Answer: 151 µM

Question: Which IC50 does the source give for `O=c1cc(O)c2ccc(O)c(O)c2o1` here?
Answer: 100 µM

target: not listed separately; test: Inhibition of porcine pancreas alpha-amylase using CNP-G3 as substrate preincubated for 10 mins followed by substrate addition and measured after 30 mins by microplate reader analysis; design: species or system Sus scrofa

Question: For `COc1cc2cc(Oc3ccc4ccc(=O)oc4c3)c(=O)oc2cc1O` [DAPHNORETIN], which IC50 is on record?
Answer: 90 µg/mL (≈ 255 µM)

target: T2, Alpha-glucosidase (Saccharomyces cerevisiae S288c, UniProt P53341+P38158+P07265); test: Inhibition of Saccharomyces cerevisiae alpha-glucosidase using pNPG as substrate incubated for 30 mins by microplate reader analysis; type: protein assay

Question: For `O=c1ccc2ccc(Oc3cc4cc(O)c(O)cc4oc3=O)cc2o1` [EDGEWORTHIN], which IC50 is on record?
Answer: 49.6 µg/mL (≈ 147 µM)

Question: Which IC50 does the source give for `COc1cc2cc(Oc3ccc4ccc(=O)oc4c3)c(=O)oc2cc1O` [DAPHNORETIN] here?
Answer: 86 µg/mL (≈ 244 µM)

Question: Which IC50 does the source give for `O=c1ccc2ccc(O)c(-c3c(O[C@@H]4OC(CO)[C@@H](O)C(O)C4O)ccc4ccc(=O)oc34)c2o1` (some centres not stated) here?
Answer: 760 µg/mL (≈ 1570 µM)

Question: For `COc1cc2c(O)c(Oc3cc(O[C@@H]4O[C@H](CO)[C@@H](O)[C@H](O)[C@H]4O[C@@H]4O[C@H](CO)[C@@H](O)[C@H](O)[C@H]4O)c4ccc(=O)oc4c3)c(=O)oc2cc1O`, which IC50 is on record?
Answer: 231 µg/mL (≈ 326 µM)

target: not listed separately; test: Inhibition of HIV-1 integrase; design: species or system Human immunodeficiency virus 1

Question: Which IC50 does the source give for `O=c1oc2ccccc2c(O)c1C(c1ccc(C(c2c(O)c3ccccc3oc2=O)c2c(O)c3ccccc3oc2=O)cc1)c1c(O)c2ccccc2oc1=O` here?
Answer: 8 µM

target: not listed separately; test: Inhibition of HIV-1 wild-type integrase using U5A/U5B-2 labeled double-stranded DNA as substrate by beta radiation counter analysis; design: species or system Human immunodeficiency virus 1

Question: For `CC(=O)Oc1ccc(C(=O)Oc2ccc(C(c3c(O)c4ccccc4oc3=O)c3c(O)c4ccccc4oc3=O)cc2)cc1OC(C)=O`, which IC50 is on record?
Answer: 1.9 µM

Question: Which IC50 does the source give for `O=C(Oc1ccc(C(c2c(O)c3ccccc3oc2=O)c2c(O)c3ccccc3oc2=O)cc1)c1ccc(C(c2c(O)c3ccccc3oc2=O)c2c(O)c3ccccc3oc2=O)cc1` here?
Answer: 0.49 µM

Question: With `Cc1ccc(C(=O)OCCN(CCOC(=O)c2ccc(C)cc2)c2ccc(C(c3c(O)c4ccccc4oc3=O)c3c(O)c4ccccc4oc3=O)cc2)cc1` as the compound, how does the IC50 read?
Answer: 1.8 µM

Question: With `CC(=O)Oc1ccccc1C(=O)Oc1ccc(C(c2c(O)c3ccccc3oc2=O)c2c(O)c3ccccc3oc2=O)cc1` as the compound, how does the IC50 read?
Answer: 27 µM

Question: Which IC50 does the source give for `CC(=O)Oc1ccc(C(=O)Oc2ccc(C(c3c(O)c4ccccc4oc3=O)c3c(O)c4ccccc4oc3=O)cc2)c(OC(C)=O)c1` here?
Answer: 19 µM

Question: For `COc1ccc(/C=C/C(=O)Oc2ccc(C(c3c(O)c4ccccc4oc3=O)c3c(O)c4ccccc4oc3=O)cc2)cc1OC`, which IC50 is on record?
Answer: 2.6 µM

Question: For `O=C(/C=C/c1ccc(O)c(O)c1)Oc1ccc(C(c2c(O)c3ccccc3oc2=O)c2c(O)c3ccccc3oc2=O)cc1`, which IC50 is on record?
Answer: 2.6 µM

Question: For `CC(=O)Oc1ccc(/C=C/C(=O)Oc2ccc(C(c3c(O)c4ccccc4oc3=O)c3c(O)c4ccccc4oc3=O)cc2)cc1OC(C)=O`, which IC50 is on record?
Answer: 2.6 µM

Question: For `O=C(CCCCC1CCSS1)Oc1ccc(C(c2c(O)c3ccccc3oc2=O)c2c(O)c3ccccc3oc2=O)cc1` (configuration not stated), which IC50 is on record?
Answer: 2.3 µM

Question: For `O=C(Oc1ccc(C(c2c(O)c3ccccc3oc2=O)c2c(O)c3ccccc3oc2=O)cc1)c1ccc(O)cc1`, which IC50 is on record?
Answer: 3.2 µM

Question: With `O=C(Oc1ccc(C(c2c(O)c3ccccc3oc2=O)c2c(O)c3ccccc3oc2=O)cc1)c1cc(O)cc(O)c1` as the compound, how does the IC50 read?
Answer: 53 µM

Question: With `O=C(Oc1ccc(C(c2c(O)c3ccccc3oc2=O)c2c(O)c3ccccc3oc2=O)cc1)c1ccccc1O` as the compound, how does the IC50 read?
Answer: 10 µM

Question: For `CC(=O)Oc1ccc(OC(C)=O)c(C(=O)Oc2ccc(C(c3c(O)c4ccccc4oc3=O)c3c(O)c4ccccc4oc3=O)cc2)c1`, which IC50 is on record?
Answer: 9.7 µM

Question: For `Cc1ccc(C(=O)Oc2cc(OC(=O)c3ccc(C)cc3)cc(C(c3c(O)c4ccccc4oc3=O)c3c(O)c4ccccc4oc3=O)c2)cc1`, which IC50 is on record?
Answer: 0.58 µM

Question: For `O=C(Oc1ccc(C(c2c(O)c3ccccc3oc2=O)c2c(O)c3ccccc3oc2=O)cc1)c1cc(O)ccc1O`, which IC50 is on record?
Answer: 25 µM

Question: Which IC50 does the source give for `CC(=O)Oc1cccc(C(=O)Oc2ccc(C(c3c(O)c4ccccc4oc3=O)c3c(O)c4ccccc4oc3=O)cc2)c1` here?
Answer: 7.1 µM

Question: With `O=C(Oc1ccc(C(c2c(O)c3ccccc3oc2=O)c2c(O)c3ccccc3oc2=O)cc1)c1ccc(O)c(O)c1` as the compound, how does the IC50 read?
Answer: 1.5 µM

Question: Which IC50 does the source give for `O=C(Oc1ccc(C(c2c(O)c3ccccc3oc2=O)c2c(O)c3ccccc3oc2=O)cc1)c1cccc(O)c1` here?
Answer: 6.1 µM

Question: With `O=C(Oc1c(C(c2ccc(O)cc2)c2c(O)c3ccccc3oc2=O)c(=O)oc2ccccc12)c1ccc(O)c(O)c1` (configuration not stated) as the compound, how does the IC50 read?
Answer: 37 µM

Question: For `O=C(Oc1ccc(C(c2c(O)c3ccccc3oc2=O)c2c(O)c3ccccc3oc2=O)cc1)c1ccc(O)cc1O`, which IC50 is on record?
Answer: 4.9 µM

Question: Which IC50 does the source give for `CC(=O)Oc1ccc(C(=O)Oc2ccc(C(c3c(O)c4ccccc4oc3=O)c3c(O)c4ccccc4oc3=O)cc2)cc1` here?
Answer: 4.6 µM

Question: With `CC(=O)Oc1cc(OC(C)=O)cc(C(=O)Oc2ccc(C(c3c(O)c4ccccc4oc3=O)c3c(O)c4ccccc4oc3=O)cc2)c1` as the compound, how does the IC50 read?
Answer: 9.3 µM

Question: With `O=C(OCCN(CCOC(=O)c1ccc(Br)cc1)c1ccc(C(c2c(O)c3ccccc3oc2=O)c2c(O)c3ccccc3oc2=O)cc1)c1ccc(Br)cc1` as the compound, how does the IC50 read?
Answer: 0.96 µM

system: not listed separately; test: Inhibition of urease (unknown origin)

Question: For `O=c1oc2ccccc2c(O)c1C(c1cccnc1)c1c(O)c2ccccc2oc1=O`, which IC50 is on record?
Answer: 35 µM

Question: For `O=c1oc2ccccc2c(O)c1Cc1c(O)c2ccccc2oc1=O` [DICUMAROL], which IC50 is on record?
Answer: 15 µM

Question: For `O=c1oc2ccccc2c(O)c1C(c1c(O)c2ccccc2oc1=O)c1c[nH]c2ccccc12`, which IC50 is on record?
Answer: 48.4 µM

Question: With `O=c1oc2ccccc2c(O)c1C(c1ccc[nH]1)c1c(O)c2ccccc2oc1=O` as the compound, how does the IC50 read?
Answer: 46.1 µM

Question: With `C/C=C/C(c1c(O)c2ccccc2oc1=O)c1c(O)c2ccccc2oc1=O` as the compound, how does the IC50 read?
Answer: 42.9 µM

target: Protein kinase C (PKC); test: Inhibition of PKC (unknown origin) using acetylated myelin basic protein (4 to 14 residues) as substrate incubated for [gamma-32P]-ATP incubated for 5 mins by scintillation counter analysis; type: protein assay, Homo sapiens

Question: For `O=c1ccc2ccc(O)c(O)c2o1` [DAPHNETIN], which IC50 is on record?
Answer: 25.01 µM

target: T2, Alpha-glucosidase; test: Inhibition of Baker's yeast alpha-glucosidase using pNPG as substrate assessed as release of p-nitrophenol preincubated for 10 mins followed by substrate addition and measured after 30 mins by microplate reader analysis; type: protein assay

Question: Which IC50 does the source give for `COc1ccc(NC(=S)Nc2ccc(C(c3c(O)c4ccccc4oc3=O)c3c(O)c4ccccc4oc3=O)cc2)cc1` here?
Answer: 13.5 µM

Question: Which IC50 does the source give for `COc1cccc(NC(=S)Nc2ccc(C(c3c(O)c4ccccc4oc3=O)c3c(O)c4ccccc4oc3=O)cc2)c1` here?
Answer: 25.31 µM

Question: With `COc1ccccc1NC(=S)Nc1ccc(C(c2c(O)c3ccccc3oc2=O)c2c(O)c3ccccc3oc2=O)cc1` as the compound, how does the IC50 read?
Answer: 104.62 µM

target: cAMP-dependent protein kinase (PKA) (Homo sapiens, UniProt P22694+P17612+P22612); test: Inhibition of PKA (unknown origin) using Kemptide as substrate incubated for [gamma-32P]-ATP incubated for 5 mins by scintillation counter analysis; type: protein assay

Question: With `O=c1ccc2ccc(O)c(O)c2o1` [DAPHNETIN] as the compound, how does the IC50 read?
Answer: 9.33 µM
